Source: PubChem BioAssay AID248 (DTP/NCI, 2004)
“And” between values parts separate entries of the source, which are not always exact repeats. Equal values may be shown once. Inconclusive results and toxic doses are left out. Rule as the data show it: active = T/C of 150% or more; inactive = T/C below 125%.

Tested on: L1210 leukemia ip in BDF1 mice, survival T/C
Assay: NCI In Vivo Anticancer Drug Screen. Data for tumor model L1210 Leukemia (intraperitoneal) in B6D2F1 (BDF1) mice
Details: endpoint: mean survival time, higher = longer survival
Method in brief: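 Antitumor effect is assessed in tumor-bearing animals. Survival in the compound arm is compared with a vehicle-dosed control arm and expressed as their quotient.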

[1] = dose: 50.0 mg/kg/injection, schedule: Q04DX002 (ip), vehicle: saline with Tween-80
[2] = dose: 100.0 mg/kg/injection, schedule: Q01DX001 (ip), vehicle: saline with Tween-80
[3] = dose: 100.0 mg/kg/injection, schedule: Q04DX003 (ip), vehicle: saline with Tween-80
[4] = dose: 200.0 mg/kg/injection, schedule: Q01DX001 (ip), vehicle: saline with Tween-80
[5] = dose: 200.0 mg/kg/injection, schedule: Q04DX003 (ip), vehicle: saline with Tween-80
[6] = dose: 400.0 mg/kg/injection, schedule: Q01DX001 (ip), vehicle: saline with Tween-80
[7] = dose: 400.0 mg/kg/injection, schedule: Q04DX003 (ip), vehicle: saline with Tween-80
[8] = dose: 50.0 mg/kg/injection, schedule: Q01DX001 (ip), vehicle: carboxymethylcellulose (CMC)
[9] = dose: 100.0 mg/kg/injection, schedule: Q01DX001 (ip), vehicle: carboxymethylcellulose (CMC)
[10] = dose: 200.0 mg/kg/injection, schedule: Q01DX001 (ip), vehicle: carboxymethylcellulose (CMC)
[11] = dose: 400.0 mg/kg/injection, schedule: Q01DX001 (ip), vehicle: carboxymethylcellulose (CMC)
[12] = dose: 100.0 mg/kg/injection, schedule: Q01DX001 (ip), vehicle: saline
[13] = dose: 200.0 mg/kg/injection, schedule: Q01DX001 (ip), vehicle: saline
[14] = dose: 400.0 mg/kg/injection, schedule: Q01DX001 (ip), vehicle: saline
[15] = dose: 100.0 mg/kg/injection, schedule: Q04DX003 (ip), vehicle: Klucel (hydroxypropylcellulose) (HPC)
[16] = dose: 200.0 mg/kg/injection, schedule: Q04DX003 (ip), vehicle: Klucel (hydroxypropylcellulose) (HPC)
[17] = dose: 400.0 mg/kg/injection, schedule: Q04DX003 (ip), vehicle: Klucel (hydroxypropylcellulose) (HPC)
[18] = dose: 100.0 mg/kg/injection, schedule: Q01DX009 (ip), vehicle: saline
[19] = dose: 200.0 mg/kg/injection, schedule: Q01DX009 (ip), vehicle: saline
[20] = dose: 75.0 mg/kg/injection, schedule: Q01DX001 (ip), vehicle: saline
[21] = dose: 100.0 mg/kg/injection, schedule: Q04DX003 (ip), vehicle: saline
[22] = dose: 200.0 mg/kg/injection, schedule: Q04DX003 (ip), vehicle: saline
[23] = dose: 400.0 mg/kg/injection, schedule: Q04DX003 (ip), vehicle: saline
[24] = dose: 100.0 mg/kg/injection, schedule: Q01DX001 (ip), vehicle: Klucel (hydroxypropylcellulose) (HPC)
[25] = dose: 200.0 mg/kg/injection, schedule: Q01DX001 (ip), vehicle: Klucel (hydroxypropylcellulose) (HPC)

Measured: T/C

CC(=O)Nc1ccc(NC(=S)NC(=O)COc2ccccc2)cc1
inactive: [1] 102 % of control and 105 % of control | [2] 107 % of control | dose: 100.0 mg/kg/injection, schedule: Q01DX009 (ip), vehicle: saline with Tween-80 102 % of control and 91 % of control | [3] 97 % of control | [4] 98 % of control | dose: 200.0 mg/kg/injection, schedule: Q01DX009 (ip), vehicle: saline with Tween-80 95 % of control and 98 % of control | [5] 90 % of control | [6] 97 % of control | dose: 400.0 mg/kg/injection, schedule: Q01DX009 (ip), vehicle: saline with Tween-80 101 % of control and 87 % of control | [7] 95 % of control

O=[N+]([O-])c1cccc(OCCOc2ccc(S(=O)(=O)F)cc2)c1
inactive: [3] 106 % of control | [5] 88 % of control | [7] 93 % of control

CC(=O)NC(CSC(=N)N)C(=O)O (centres undefined)
inactive: [8] 107 % of control | [9] 98 % of control | [10] 98 % of control | [11] 102 % of control

CC(=O)C(c1ccc(N(C)C)cc1)c1ccc(N(C)C)cc1
inactive: dose: 50.0 mg/kg/injection, schedule: Q01DX001 (ip), vehicle: saline 101 % of control | [12] 101 % of control | [13] 101 % of control | [14] 101 % of control

CCCSP(=[Se])(CCC)c1ccccc1 (centres undefined)
inactive: dose: 25.0 mg/kg/injection, schedule: Q04DX002 (ip), vehicle: saline with Tween-80 97 % of control | [1] 97 % of control | dose: 100.0 mg/kg/injection, schedule: Q04DX002 (ip), vehicle: saline with Tween-80 101 % of control

O=C1CCC(=S)N1c1ccccc1
inactive: [15] 101 % of control | [16] 100 % of control | [17] 95 % of control

CCOC(=O)c1ccc(NC(=S)NC(=O)c2cccc([N+](=O)[O-])c2)cc1
inactive: dose: 50.0 mg/kg/injection, schedule: Q01DX001 (ip), vehicle: saline with Tween-80 88 % of control | [2] 88 % of control | [18] 99 % of control and 86 % of control | dose: 100.0 mg/kg/injection, schedule: Q04DX002 (ip), vehicle: alcohol 93 % of control | [3] 105 % of control | [4] 104 % of control and 87 % of control | [19] 93 % of control and 101 % of control | dose: 200.0 mg/kg/injection, schedule: Q04DX002 (ip), vehicle: alcohol 90 % of control | [5] 97 % of control | [6] 106 % of control | dose: 400.0 mg/kg/injection, schedule: Q04DX002 (ip), vehicle: alcohol 90 % of control | [7] 95 % of control

CCOC(=O)NCNC(=O)OCC
inactive: dose: 100.0 mg/kg/injection, schedule: Q01DX009 (ip), vehicle: saline sonified 104 % of control | dose: 100.0 mg/kg/injection, schedule: Q04DX003 (ip), vehicle: saline sonified 100 % of control | dose: 200.0 mg/kg/injection, schedule: Q01DX009 (ip), vehicle: saline sonified 95 % of control | dose: 200.0 mg/kg/injection, schedule: Q04DX003 (ip), vehicle: saline sonified 97 % of control | dose: 400.0 mg/kg/injection, schedule: Q01DX009 (ip), vehicle: saline sonified 91 % of control | dose: 400.0 mg/kg/injection, schedule: Q04DX003 (ip), vehicle: saline sonified 94 % of control

CC[N+](C)(C)C1CCCCC1
inactive: [20] 94 % of control

O=C(O)CCc1ccc([N+](=O)[O-])cc1Cl
inactive: [15] 96 % of control | [16] 101 % of control | [17] 101 % of control

COc1cc(OC)c(Br)c(OC)c1
inactive: dose: 100.0 mg/kg/injection, schedule: Q01DX009 (ip), vehicle: other 108 % of control | [21] 94 % of control | dose: 200.0 mg/kg/injection, schedule: Q01DX009 (ip), vehicle: other 93 % of control | [22] 96 % of control | dose: 400.0 mg/kg/injection, schedule: Q01DX009 (ip), vehicle: other 101 % of control | [23] 97 % of control

COc1ccc(C(=O)CC(C)=O)c(OCc2ccccc2)c1OC
inactive: [12] 101 % of control | [13] 98 % of control | [14] 104 % of control

Nc1ccc2c(c1)/C(=N/O)c1cc([N+](=O)[O-])ccc1-2
inactive: [9] 100 % of control | [10] 105 % of control | [11] 112 % of control

CC(C)OC(=O)C(=O)Nc1cccc(Cl)c1
inactive: [24] 108 % of control | [25] 95 % of control | dose: 400.0 mg/kg/injection, schedule: Q01DX001 (ip), vehicle: Klucel (hydroxypropylcellulose) (HPC) 95 % of control

N#C/C(=C\c1cccn1Cc1cc2c(cc1[N+](=O)[O-])OCO2)C(N)=O
inactive: dose: 25.0 mg/kg/injection, schedule: Q04DX002 (ip), vehicle: Klucel (hydroxypropylcellulose) (HPC) 96 % of control | dose: 50.0 mg/kg/injection, schedule: Q04DX002 (ip), vehicle: Klucel (hydroxypropylcellulose) (HPC) 96 % of control | dose: 100.0 mg/kg/injection, schedule: Q04DX002 (ip), vehicle: Klucel (hydroxypropylcellulose) (HPC) 96 % of control

Cc1nn(-c2ccccc2)c(N)c1C#N
inactive: dose: 25.0 mg/kg/injection, schedule: Q01DX009 (ip), vehicle: saline 100 % of control | dose: 50.0 mg/kg/injection, schedule: Q01DX009 (ip), vehicle: saline 97 % of control | dose: 75.0 mg/kg/injection, schedule: Q01DX009 (ip), vehicle: saline 98 % of control | [18] 103 % of control and 121 % of control | dose: 150.0 mg/kg/injection, schedule: Q01DX009 (ip), vehicle: saline 103 % of control | [19] 106 % of control

O=C(NC1CC2c3ccccc3C1c1ccccc12)NC1CC2c3ccccc3C1c1ccccc12 (centres undefined)
inactive: [15] 94 % of control | [16] 89 % of control | [17] 98 % of control

Cc1ccccc1C[As](C)(=O)O
inactive: [24] 98 % of control | [25] 118 % of control

O=[N+]([O-])c1ccc(C2OC3CC4C5CCCC5C3C4O2)cc1 (centres undefined)
inactive: [8] 87 % of control | [9] 87 % of control | [10] 91 % of control | [11] 91 % of control

CC1(C)/C(=C\S(=O)(=O)O)C2CCC1C2 (centres undefined)
inactive: [12] 105 % of control | [21] 110 % of control | [13] 105 % of control | [22] 98 % of control | [14] 103 % of control | [23] 101 % of control

O=c1[nH]nc(S(=O)(=O)NC2CCCCC2)c(=O)[nH]1
inactive: [9] 101 % of control | [10] 95 % of control | [11] 110 % of control

O=C1C(=O)c2ccccc2C(O)=C1C(C1=C(O)c2ccccc2C(=O)C1=O)c1ccc(Cl)cc1
inactive: [20] 86 % of control | dose: 150.0 mg/kg/injection, schedule: Q01DX001 (ip), vehicle: saline 86 % of control | dose: 300.0 mg/kg/injection, schedule: Q01DX001 (ip), vehicle: saline 86 % of control
